In ChEMBL document CHEMBL1806359, “Synthesis and evaluation of bidentate ligands designed to interact with PDZ domains” (Bioorg Med Chem, 2011):

Biological target: Disks large homolog 4 (Mus musculus) (UniProt Q62108)
Assay: Binding affinity to Swiss mouse brain PSD95 domain assessed as inhibition of PSD95-5-HT2A receptor C-terminal decapeptide interaction after overnight incubation by chemiluminescence assay
Type: tissue-based

Disks large homolog 4 (Mus musculus), sequence (Q62108 whole entry, looked up, the tested form may be a part): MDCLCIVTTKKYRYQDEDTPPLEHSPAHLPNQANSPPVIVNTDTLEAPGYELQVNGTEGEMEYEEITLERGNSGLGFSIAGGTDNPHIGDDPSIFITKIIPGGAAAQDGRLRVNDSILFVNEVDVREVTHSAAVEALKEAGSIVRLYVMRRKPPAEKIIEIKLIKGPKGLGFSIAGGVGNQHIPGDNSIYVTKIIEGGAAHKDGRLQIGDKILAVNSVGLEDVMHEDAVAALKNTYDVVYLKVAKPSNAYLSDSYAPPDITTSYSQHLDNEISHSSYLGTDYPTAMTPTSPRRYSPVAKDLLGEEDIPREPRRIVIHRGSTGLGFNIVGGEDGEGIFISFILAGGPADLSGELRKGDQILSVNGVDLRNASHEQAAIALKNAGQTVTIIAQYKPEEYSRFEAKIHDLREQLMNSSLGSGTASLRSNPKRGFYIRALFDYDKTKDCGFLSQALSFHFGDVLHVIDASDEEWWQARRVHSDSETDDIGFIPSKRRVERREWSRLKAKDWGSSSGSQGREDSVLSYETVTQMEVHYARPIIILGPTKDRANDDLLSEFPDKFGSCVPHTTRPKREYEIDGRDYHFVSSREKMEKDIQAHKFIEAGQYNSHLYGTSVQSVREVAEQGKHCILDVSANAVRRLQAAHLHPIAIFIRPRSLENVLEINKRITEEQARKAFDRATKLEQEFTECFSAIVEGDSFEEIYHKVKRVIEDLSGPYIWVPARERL

Row | inhibition | SMILES
1 | Dose-dependent effect | Cc1c(C(=O)O)[nH]c2ccc(C(=O)O)cc12
2 | Dose-dependent effect | Cc1c(C(=O)NCCNC(=O)[C@@H](N)Cc2c[nH]c3ccccc23)[nH]c2ccc(C(=O)O)cc12
3 | Dose-dependent effect | Cc1c(C(=O)NCCN)[nH]c2ccc(C(=O)O)cc12
